In publication PMC11509018, “Evaluation of the Role of Tanshinone I in an In Vitro System of Charcot-Marie-Tooth Disease Type 2N” (International Journal of Molecular Sciences, 2024):
Changes are numbered by the printed parent chain.

Columns and labels:
AlaRS^N71Y = molecular target: T1, AlaRS^N71Y (Homo sapiens, UniProt P49588, N71Y); assay: Proteolytic digestion assay (trypsin, SDS-PAGE); conditions: three hours
T1 construct: made in house; host or cells: E. coli BL21 (DE3), pET-21a
T1 sequence (P49588 1-968 N71Y): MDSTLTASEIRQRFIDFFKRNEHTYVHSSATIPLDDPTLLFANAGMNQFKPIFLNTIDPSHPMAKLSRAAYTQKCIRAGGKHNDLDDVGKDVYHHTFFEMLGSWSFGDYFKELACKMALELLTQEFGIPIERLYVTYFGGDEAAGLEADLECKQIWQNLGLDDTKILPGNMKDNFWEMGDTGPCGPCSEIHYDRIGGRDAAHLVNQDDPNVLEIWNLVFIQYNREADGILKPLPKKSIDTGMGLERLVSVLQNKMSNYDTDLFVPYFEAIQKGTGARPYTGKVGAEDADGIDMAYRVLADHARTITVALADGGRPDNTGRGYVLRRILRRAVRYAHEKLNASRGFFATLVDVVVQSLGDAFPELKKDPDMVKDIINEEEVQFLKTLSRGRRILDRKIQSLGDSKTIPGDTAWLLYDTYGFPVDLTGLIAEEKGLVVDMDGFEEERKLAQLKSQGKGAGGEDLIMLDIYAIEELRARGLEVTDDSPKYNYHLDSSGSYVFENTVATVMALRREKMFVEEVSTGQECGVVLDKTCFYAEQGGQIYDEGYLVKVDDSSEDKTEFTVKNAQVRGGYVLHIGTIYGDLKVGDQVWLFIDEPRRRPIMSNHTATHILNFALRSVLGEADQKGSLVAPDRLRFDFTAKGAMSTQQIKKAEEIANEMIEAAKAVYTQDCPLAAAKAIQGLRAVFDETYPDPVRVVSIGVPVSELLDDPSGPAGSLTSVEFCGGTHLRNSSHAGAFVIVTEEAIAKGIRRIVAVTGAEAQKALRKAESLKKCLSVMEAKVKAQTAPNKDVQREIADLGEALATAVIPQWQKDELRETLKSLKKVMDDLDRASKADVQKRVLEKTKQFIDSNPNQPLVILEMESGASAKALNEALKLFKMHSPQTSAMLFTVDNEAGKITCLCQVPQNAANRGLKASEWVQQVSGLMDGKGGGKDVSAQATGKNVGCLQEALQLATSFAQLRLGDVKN
Description: (§1) Furthermore, we examined the interaction of Tanshinone I with additional AlaRS CMT mutants capable of binding to Nrp1 and causing conformational changes by BLI and proteolysis assays on additional related mutants.
(§2) Figure 5 BLI and proteolytic digestion assay of AlaRS mutants with Tanshinone I. Binding sensorgrams for the interaction of Tanshinone I with immobilized AlaRS^R329H (A), AlaRS^G102R (C), AlaRS^R326W (E), and AlaRS^E337K (G). Each sensorgram contains five curves generated from five different concentrations. The KD values are presented as the mean ± SD and experiments were performed in triplicate. The AlaRS^N71Y (B), AlaRS^G102R (D), AlaRS^R326W (F), and AlaRS^E337K (H) proteins (in the presence and absence of Tanshinone I) were incubated with trypsin at different concentrations for three hours before the reactions were quenched, and the products were separated by SDS-PAGE.

AlaRS^G102R = molecular target: T2, AlaRS^G102R (Homo sapiens, UniProt P49588, G102R); assay: Proteolytic digestion assay (trypsin, SDS-PAGE); conditions: three hours
T2 construct: made in house; host or cells: E. coli BL21 (DE3), pET-21a
T2 sequence (P49588 1-968 G102R): T1 sequence (P49588 1-968 N71Y) with Y71N, G102R
Description: as §1, §2

Effect on proteolytic fragments / conformation (AlaRS^N71Y): significant conformational change
Compound: Cc1coc2c1C(=O)C(=O)c1c-2ccc2c(C)cccc12 [Tanshinone I]
Effect on proteolytic fragments / conformation (AlaRS^G102R): more prominent bands at 1/100 after Tanshinone I treatment
